Legend:
Experiment in all cases: KINOMEscan competition binding
ANKK1 = target: T1, ANKK1 (Homo sapiens, UniProt Q8NFD2); conditions: read-out: %Inh ANKK1
T1 sequence (Q8NFD2 1-765): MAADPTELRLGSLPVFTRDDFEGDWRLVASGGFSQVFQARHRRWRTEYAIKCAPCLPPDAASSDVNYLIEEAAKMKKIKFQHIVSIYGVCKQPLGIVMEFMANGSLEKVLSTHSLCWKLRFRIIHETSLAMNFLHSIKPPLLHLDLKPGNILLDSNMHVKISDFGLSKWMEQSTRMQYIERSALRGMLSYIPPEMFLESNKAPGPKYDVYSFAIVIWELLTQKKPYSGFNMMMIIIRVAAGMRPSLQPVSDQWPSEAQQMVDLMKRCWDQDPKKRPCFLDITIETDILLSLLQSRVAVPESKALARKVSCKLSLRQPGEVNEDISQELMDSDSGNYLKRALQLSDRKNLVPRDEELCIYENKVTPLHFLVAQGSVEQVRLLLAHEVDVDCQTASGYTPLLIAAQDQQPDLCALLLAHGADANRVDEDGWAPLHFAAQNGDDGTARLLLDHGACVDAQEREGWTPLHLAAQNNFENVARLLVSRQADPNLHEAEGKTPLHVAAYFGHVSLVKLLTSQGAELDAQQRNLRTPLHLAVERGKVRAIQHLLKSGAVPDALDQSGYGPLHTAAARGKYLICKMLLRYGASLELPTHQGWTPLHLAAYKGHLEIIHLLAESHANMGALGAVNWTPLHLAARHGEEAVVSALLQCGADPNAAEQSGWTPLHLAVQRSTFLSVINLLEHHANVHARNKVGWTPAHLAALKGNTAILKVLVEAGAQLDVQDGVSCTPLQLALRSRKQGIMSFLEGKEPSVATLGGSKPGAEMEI

BMPR2 = target: T2, BMPR2 (Homo sapiens, UniProt Q13873); conditions: read-out: %Inh BMPR2
T2 sequence (Q13873 27-1038): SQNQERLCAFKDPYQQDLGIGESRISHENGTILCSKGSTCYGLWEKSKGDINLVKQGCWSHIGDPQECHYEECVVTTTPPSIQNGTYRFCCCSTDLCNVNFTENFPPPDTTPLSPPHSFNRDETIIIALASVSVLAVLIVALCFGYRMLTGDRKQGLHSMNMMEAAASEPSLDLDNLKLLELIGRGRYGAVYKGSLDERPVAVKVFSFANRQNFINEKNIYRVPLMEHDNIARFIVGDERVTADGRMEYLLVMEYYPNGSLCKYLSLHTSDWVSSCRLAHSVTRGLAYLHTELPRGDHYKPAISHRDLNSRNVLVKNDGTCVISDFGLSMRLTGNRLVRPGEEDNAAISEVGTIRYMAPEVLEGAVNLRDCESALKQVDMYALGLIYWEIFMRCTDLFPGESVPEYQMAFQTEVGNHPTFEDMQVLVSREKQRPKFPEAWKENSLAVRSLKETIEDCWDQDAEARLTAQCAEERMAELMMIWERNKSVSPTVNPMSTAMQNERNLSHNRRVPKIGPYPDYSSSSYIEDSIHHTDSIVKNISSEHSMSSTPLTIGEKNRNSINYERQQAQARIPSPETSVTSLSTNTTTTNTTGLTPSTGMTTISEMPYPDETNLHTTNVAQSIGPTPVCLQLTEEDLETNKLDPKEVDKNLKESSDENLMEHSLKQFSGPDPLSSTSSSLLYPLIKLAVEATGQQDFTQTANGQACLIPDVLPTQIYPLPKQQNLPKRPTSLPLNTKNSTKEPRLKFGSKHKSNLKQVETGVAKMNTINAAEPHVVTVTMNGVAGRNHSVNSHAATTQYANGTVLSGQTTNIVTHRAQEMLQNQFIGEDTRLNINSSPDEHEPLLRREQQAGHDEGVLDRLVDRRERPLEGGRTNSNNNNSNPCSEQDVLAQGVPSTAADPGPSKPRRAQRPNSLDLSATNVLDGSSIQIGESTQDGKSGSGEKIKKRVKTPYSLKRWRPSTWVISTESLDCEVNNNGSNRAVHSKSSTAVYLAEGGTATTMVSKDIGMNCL

CDK7 = CDK7 (Homo sapiens, UniProt P50613); conditions: read-out: %Inh CDK7
CLK4 = CLK4 (Homo sapiens, UniProt Q9HAZ1); conditions: read-out: %Inh CLK4
CSNK1A1 = CSNK1A1 (Homo sapiens, UniProt P48729); conditions: read-out: %Inh CSNK1A1
ERK1 = ERK1 (Homo sapiens, UniProt P27361); conditions: read-out: %Inh ERK1
GRK3 = target: T3, GRK3 (Homo sapiens, UniProt P35626); conditions: read-out: %Inh GRK3
T3 sequence (P35626 1-688): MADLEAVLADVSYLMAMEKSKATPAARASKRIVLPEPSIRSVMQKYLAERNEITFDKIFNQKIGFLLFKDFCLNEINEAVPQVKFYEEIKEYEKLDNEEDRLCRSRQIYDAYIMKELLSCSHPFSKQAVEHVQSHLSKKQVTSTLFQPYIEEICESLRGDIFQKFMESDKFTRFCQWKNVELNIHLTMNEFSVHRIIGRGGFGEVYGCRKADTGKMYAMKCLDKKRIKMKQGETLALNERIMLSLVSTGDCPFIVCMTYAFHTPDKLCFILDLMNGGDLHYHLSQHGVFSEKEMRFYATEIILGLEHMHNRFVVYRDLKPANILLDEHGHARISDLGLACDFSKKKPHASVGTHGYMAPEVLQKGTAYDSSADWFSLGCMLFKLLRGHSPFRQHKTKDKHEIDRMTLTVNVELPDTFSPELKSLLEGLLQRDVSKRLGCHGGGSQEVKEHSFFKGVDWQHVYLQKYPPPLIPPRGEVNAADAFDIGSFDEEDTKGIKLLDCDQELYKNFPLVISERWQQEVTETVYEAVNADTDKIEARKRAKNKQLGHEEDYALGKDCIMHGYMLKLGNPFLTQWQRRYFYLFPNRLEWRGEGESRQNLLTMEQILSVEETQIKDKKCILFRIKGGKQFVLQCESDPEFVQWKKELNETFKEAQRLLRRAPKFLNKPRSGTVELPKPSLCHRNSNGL

CSNK1A1, sequence (P48729 whole entry): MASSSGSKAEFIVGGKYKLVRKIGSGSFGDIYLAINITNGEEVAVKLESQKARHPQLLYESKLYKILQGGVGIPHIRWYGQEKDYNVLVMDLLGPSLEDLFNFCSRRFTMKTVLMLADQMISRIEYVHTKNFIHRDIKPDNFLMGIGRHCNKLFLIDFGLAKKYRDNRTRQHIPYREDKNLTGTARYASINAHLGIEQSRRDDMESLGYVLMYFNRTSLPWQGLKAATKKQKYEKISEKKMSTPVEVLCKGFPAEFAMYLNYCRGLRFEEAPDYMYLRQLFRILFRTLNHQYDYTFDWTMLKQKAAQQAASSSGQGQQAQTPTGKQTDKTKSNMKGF
CDK7, sequence (P50613 whole entry): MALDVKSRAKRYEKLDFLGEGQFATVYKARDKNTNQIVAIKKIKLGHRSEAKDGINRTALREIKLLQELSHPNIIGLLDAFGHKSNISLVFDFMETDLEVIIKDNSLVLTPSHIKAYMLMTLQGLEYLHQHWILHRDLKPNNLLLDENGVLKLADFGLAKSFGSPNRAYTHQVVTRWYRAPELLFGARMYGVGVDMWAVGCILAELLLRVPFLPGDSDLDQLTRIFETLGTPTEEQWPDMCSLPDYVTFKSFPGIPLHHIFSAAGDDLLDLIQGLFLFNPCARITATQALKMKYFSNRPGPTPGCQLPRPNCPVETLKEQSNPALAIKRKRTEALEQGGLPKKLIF
CLK4, sequence (Q9HAZ1 whole entry): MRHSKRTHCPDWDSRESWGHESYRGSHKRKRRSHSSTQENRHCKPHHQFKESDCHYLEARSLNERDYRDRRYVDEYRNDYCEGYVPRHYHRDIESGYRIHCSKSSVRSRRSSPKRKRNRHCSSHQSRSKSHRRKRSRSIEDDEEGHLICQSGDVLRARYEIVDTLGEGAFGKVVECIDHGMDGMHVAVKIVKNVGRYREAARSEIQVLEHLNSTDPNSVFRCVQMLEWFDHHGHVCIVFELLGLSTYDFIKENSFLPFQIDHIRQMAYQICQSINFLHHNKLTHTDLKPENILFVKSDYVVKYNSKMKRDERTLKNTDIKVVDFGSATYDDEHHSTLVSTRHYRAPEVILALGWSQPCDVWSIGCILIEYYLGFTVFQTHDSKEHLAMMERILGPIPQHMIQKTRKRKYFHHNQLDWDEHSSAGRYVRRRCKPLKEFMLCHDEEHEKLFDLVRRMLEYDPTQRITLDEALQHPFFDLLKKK
ERK1, sequence (P27361 whole entry): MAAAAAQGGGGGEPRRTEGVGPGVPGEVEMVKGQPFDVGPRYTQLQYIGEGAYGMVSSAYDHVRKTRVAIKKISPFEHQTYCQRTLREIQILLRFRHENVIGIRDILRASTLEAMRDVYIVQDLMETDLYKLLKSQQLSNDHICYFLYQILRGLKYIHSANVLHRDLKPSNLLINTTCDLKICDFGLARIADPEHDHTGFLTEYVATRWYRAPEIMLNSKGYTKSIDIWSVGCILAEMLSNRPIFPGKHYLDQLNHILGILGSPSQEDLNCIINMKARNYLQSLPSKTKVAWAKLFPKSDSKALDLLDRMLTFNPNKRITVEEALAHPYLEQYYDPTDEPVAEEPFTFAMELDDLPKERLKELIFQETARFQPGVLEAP

## Cn1cc(-c2cnc(N)c3c(-c4ccc5c(c4)CCN5C(=O)Cc4ccccc4)csc23)cn1 [UNC10225012A]
ANKK1
  inhibition at 1 µM: 0%
BMPR2
  inhibition at 1 µM: 6%
CDK7
  inhibition at 1 µM: 19%
CLK4
  inhibition at 1 µM: 0%
CSNK1A1
  inhibition at 1 µM: 21%
ERK1
  inhibition at 1 µM: 0%
GRK3
  inhibition at 1 µM: 0%

## O=c1cc(N2CCOCC2)nc2n(Cc3cccc(Cl)c3Cl)c(C3CC3)nn12 [UNC10225469A]
ANKK1
  inhibition at 1 µM: 0%
BMPR2
  inhibition at 1 µM: 13%
CDK7
  inhibition at 1 µM: 5%
CLK4
  inhibition at 1 µM: 0%
CSNK1A1
  inhibition at 1 µM: 0%
ERK1
  inhibition at 1 µM: 0%
GRK3
  inhibition at 1 µM: 0%

## COc1cccc(OC)c1C(=O)Nc1cccc(-c2nn3ccccc3c2-c2ccnc(Nc3cccc(F)c3)n2)c1 [UNC10225310A]
ANKK1
  inhibition at 1 µM: 93.2%
BMPR2
  inhibition at 1 µM: 0%
CDK7
  inhibition at 1 µM: 22%
CLK4
  inhibition at 1 µM: 0%
CSNK1A1
  inhibition at 1 µM: 25%
ERK1
  inhibition at 1 µM: 1%
GRK3
  inhibition at 1 µM: 0%

## CS(=O)(=O)Cc1ccc(Nc2nccc(-c3c(-c4cccc(NC(=O)C5CCCCC5)c4)nn4ncccc34)n2)cc1 [UNC10225159A]
ANKK1
  inhibition at 1 µM: 0%
BMPR2
  inhibition at 1 µM: 24%
CDK7
  inhibition at 1 µM: 6%
CLK4
  inhibition at 1 µM: 0%
CSNK1A1
  inhibition at 1 µM: 7%
ERK1
  inhibition at 1 µM: 2%
GRK3
  inhibition at 1 µM: 0%

## Cc1ccc(NC(=O)Nc2cccc(C(F)(F)F)c2)cc1 [UNC10225187A]
ANKK1
  inhibition at 1 µM: 0%
BMPR2
  inhibition at 1 µM: 1%
CDK7
  inhibition at 1 µM: 12%
CLK4
  inhibition at 1 µM: 0%
CSNK1A1
  inhibition at 1 µM: 0%
ERK1
  inhibition at 1 µM: 0%
GRK3
  inhibition at 1 µM: 0%
